Drawing on PubChem BioAssay (NCI), this text covers TGI for 8 molecules.

Each structure is given as a SMILES string.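 Grown in 96-well plates, cells were treated for 48 hours with each compound at five concentrations. Insufficient inhibition: endpoint recorded as highest concentration tested. TGI: total growth inhibition.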 A value given as a limit tells only on which side of the number the result lay.

Test systems include T-47D breast; SK-OV-3 ovarian; MALME-3M melanoma; SF-295 CNS; MOLT-4 leukemia; SNB-19 CNS; UACC-62 melanoma; NCI-H522 lung; NCI-H23 lung; UACC-257 melanoma; HT29 colon; HOP-92 NSCLC; NCI-H226 lung; 786-0 renal; TK-10 renal; NCI-H460 lung; BT-549 breast; CCRF-CEM leukemia; SW-620 colon.
Holding throughout (assay): DTP human tumour cell line panel, 48 h

Broadly, the TGI is the concentration at which net growth stops. The low end stands for greater sensitivity of the cells, the high end for lower sensitivity of the cells. Take `OCC1OC(NCCNCCNC2OC(CO)C(O)C(O)C2O)C(O)C(O)C1O` (stereo not given): the TGI in the assay on T-47D breast, in the assay on SK-OV-3 ovarian, in the assay with MALME-3M melanoma, in the assay with SF-295 CNS, in the assay with MOLT-4 leukemia and in the assay on SNB-19 CNS was > 100 µM throughout. Further, the TGI with UACC-62 melanoma, in the assay on NCI-H522 lung, in the assay on NCI-H23 lung, in the assay with UACC-257 melanoma, in the assay with HT29 colon and with HOP-92 NSCLC was > 100 µM throughout. The TGI in the assay on NCI-H226 lung, in the assay on 786-0 renal, in the assay with TK-10 renal, in the assay on NCI-H460 lung, in the assay on BT-549 breast and in the assay with CCRF-CEM leukemia was > 100 µM in each case. For the same molecule, the TGI in the assay on SW-620 colon is > 100 µM.
Consider `O=C(c1ccco1)n1c2ccc(Br)cc2c2nc3ccccc3nc21`, for which the TGI in the assay with T-47D breast, in the assay on MALME-3M melanoma, in the assay on SF-295 CNS, in the assay with MOLT-4 leukemia, in the assay on SNB-19 CNS and in the assay with UACC-62 melanoma was > 100 µM throughout. The TGI in the assay with NCI-H522 lung was 41.5 µM; in the assay with NCI-H23 lung, > 100 µM; with UACC-257 melanoma, > 100 µM; in the assay with HT29 colon it was > 100 µM; with HOP-92 NSCLC, > 100 µM; in the assay on NCI-H226 lung, > 100 µM. Besides, the TGI with 786-0 renal is 51 µM; in the assay with TK-10 renal, > 100 µM; with NCI-H460 lung, > 100 µM; with BT-549 breast, > 100 µM; with CCRF-CEM leukemia it was > 100 µM; with SW-620 colon, > 100 µM.
With `COC(=O)C12OC(C)(C(CC(=O)OC(C)(C)C)C1=O)C1C(=O)N(c3ccccc3)C(=O)C12` (stereo not given), the TGI in the assay on T-47D breast, with SK-OV-3 ovarian, in the assay on MALME-3M melanoma, in the assay on SF-295 CNS, in the assay with MOLT-4 leukemia and in the assay on SNB-19 CNS was > 100 µM throughout. In addition, the TGI in the assay on UACC-62 melanoma, in the assay with NCI-H522 lung, in the assay on NCI-H23 lung, with UACC-257 melanoma, in the assay with HT29 colon and with HOP-92 NSCLC was > 100 µM each time. Also, the TGI with NCI-H226 lung, with 786-0 renal, in the assay on TK-10 renal, in the assay with NCI-H460 lung, in the assay with BT-549 breast and in the assay on CCRF-CEM leukemia was > 100 µM in each case. Also, the TGI in the assay with SW-620 colon is > 100 µM.
On to `COc1cc(C[C@H]2C(=O)OC[C@@H]2Cc2ccc(OC)c(OC)c2)cc(OC)c1`, for which the TGI in the assay with T-47D breast, in the assay with SK-OV-3 ovarian, with MALME-3M melanoma, with SF-295 CNS, in the assay with MOLT-4 leukemia and in the assay on SNB-19 CNS was > 100 µM throughout. Further, the TGI with UACC-62 melanoma, in the assay with NCI-H522 lung, with NCI-H23 lung, in the assay on UACC-257 melanoma, in the assay with HT29 colon and in the assay on HOP-92 NSCLC was > 100 µM each time. The TGI with NCI-H226 lung, with 786-0 renal, in the assay with TK-10 renal, in the assay on NCI-H460 lung, with BT-549 breast and in the assay with CCRF-CEM leukemia was > 100 µM throughout. Further, in the assay on SW-620 colon, the TGI is > 100 µM.
Turning to `CC1=C(O)C(=O)C[C@]2(C)[C@H]3CC=C4[C@@H]5CC(C)(C)CC[C@@H]5C(=O)[C@H](O)[C@@]4(C)[C@]3(C)CC[C@@H]12`, the TGI in the assay on T-47D breast, in the assay with SK-OV-3 ovarian, in the assay on MALME-3M melanoma, in the assay with SF-295 CNS, in the assay on MOLT-4 leukemia and in the assay on SNB-19 CNS was > 50 µM each time. The total growth inhibition concentration (TGI) in the assay on UACC-62 melanoma was > 50 µM; in the assay on NCI-H522 lung, > 50 µM; with NCI-H23 lung, > 50 µM; with UACC-257 melanoma it was > 50 µM; in the assay on HT29 colon, > 50 µM; in the assay on HOP-92 NSCLC, 28.5 µM. The TGI with NCI-H226 lung, with 786-0 renal, in the assay with TK-10 renal, with NCI-H460 lung, with BT-549 breast and in the assay on CCRF-CEM leukemia was > 50 µM each time. The TGI in the assay with SW-620 colon was > 50 µM.
`COc1ccc(C(=O)c2sc(Nc3ccccc3)nc2N)cc1`: the TGI in the assay with T-47D breast, in the assay with SK-OV-3 ovarian, in the assay on MALME-3M melanoma, in the assay on SF-295 CNS, in the assay on MOLT-4 leukemia and in the assay with SNB-19 CNS was > 100 µM in each case. Further, the TGI in the assay on UACC-62 melanoma, with NCI-H522 lung, in the assay with NCI-H23 lung, with UACC-257 melanoma, with HT29 colon and in the assay on HOP-92 NSCLC was > 100 µM in each case. Moreover, the TGI in the assay with NCI-H226 lung, in the assay with 786-0 renal, in the assay with TK-10 renal, in the assay on NCI-H460 lung, with BT-549 breast and in the assay with CCRF-CEM leukemia was > 100 µM throughout. In addition, the TGI in the assay on SW-620 colon is > 100 µM.
`Cc1cnc(/N=c2\sc(C)cn2-c2ncc(C)s2)s1`: the TGI with T-47D breast, in the assay with SK-OV-3 ovarian, in the assay on MALME-3M melanoma, in the assay on SF-295 CNS, with MOLT-4 leukemia and with SNB-19 CNS was > 100 µM throughout. The TGI in the assay on UACC-62 melanoma, with NCI-H522 lung, in the assay with NCI-H23 lung, with UACC-257 melanoma, in the assay with HT29 colon and with HOP-92 NSCLC was > 100 µM throughout. Besides, the TGI in the assay with NCI-H226 lung, with 786-0 renal, in the assay on TK-10 renal, in the assay with NCI-H460 lung, in the assay on BT-549 breast and with CCRF-CEM leukemia was > 100 µM each time. For the same molecule, the TGI in the assay with SW-620 colon is > 100 µM.
For `NC1CC(N)c2c(Br)sc(Br)c21` (stereo not given), the TGI with T-47D breast, in the assay with SK-OV-3 ovarian, in the assay with MALME-3M melanoma, in the assay on SF-295 CNS, in the assay on MOLT-4 leukemia and with UACC-62 melanoma was > 100 µM throughout. The TGI in the assay with NCI-H522 lung, in the assay with NCI-H23 lung, with UACC-257 melanoma, in the assay with HT29 colon, with HOP-92 NSCLC and in the assay with NCI-H226 lung was > 100 µM in each case. Besides, the TGI with 786-0 renal, in the assay with TK-10 renal, with NCI-H460 lung, in the assay with BT-549 breast, in the assay with CCRF-CEM leukemia and with SW-620 colon was > 100 µM each time.
